Test system: HCT116 MTAP WT cells
Assay: Proliferation inhibition of HCT116 cells in vitro (CellTiter Glo, 6 days)
Assay type: cell-based
Conditions: Homo sapiens, HCT-116, 144 h, read-out: Cell proliferation inhibition rate HCT116 MTAP WT IC50 (nm)

IC50, 1000 to 10000 nM:
CCN(Cc1cn2ccccc2n1)C(=O)c1cc2c(cc1F)nc(N)c1c(C)ncn12 [Example 274]
COCC(C)N(Cc1cn2cc(C(F)(F)F)ccc2n1)C(=O)c1ccc2nc(N)c3c(C)ncn3c2c1 (centres unmarked) [Example 288]
CCN(Cc1cc2ccc(C(F)(F)F)cn2n1)C(=O)c1cc2c(cc1F)nc(N)c1c(C)ncn12 [Example 218]
CCN(Cc1cn2cc(-c3cnn(C)c3)ccc2n1)C(=O)c1cc2c(cc1F)nc(N)c1c(C)ncn12 [Example 258]
Cc1ncccc1N(Cc1cn2cc(C(F)(F)F)ccc2n1)C(=O)c1ccc2nc(N)c3c(c2c1)COC3 [Example 99]
Cc1ncc2c(N)nc3cc(F)c(C(=O)N(Cc4cc5c(cn4)COC5)c4cnn(C)c4)cc3n12 [Example 211]
CCN(C(=O)c1cc2c(cc1F)nc(N)c1c(C)ncn12)C1COc2ccccc21 (centres unmarked) [Example 224]
CCN(Cc1cc2ccccn2n1)C(=O)c1ccc2nc(N)c3cnc(C)n3c2c1 [Example 159]
CC(c1ncccn1)N(Cc1cn2c(n1)COCC2)C(=O)c1ccc2nc(N)c3c(c2c1)CCC3 (centres unmarked) [Example 157]
Cc1nn(C)cc1N(Cc1nc2ccc(C(F)(F)F)cn2c1F)C(=O)c1ccc2nc(N)c3c(c2c1)COC3 [Example 93]
CCN(Cc1cn2nc(C(F)(F)F)ccc2n1)C(=O)c1cc2c(cc1F)nc(N)c1c(C)ncn12 [Example 213]
Cc1nn(C)cc1N(Cc1cn2cc(C(F)(F)F)ccc2n1)C(=O)c1ccc2nc(N)c3c(c2c1)OCC3 [Example 109]
COC1CCC1N(Cc1cn2cc(C(F)(F)F)ccc2n1)C(=O)c1ccc2nc(N)c3c(C)ncn3c2c1 (centres unmarked) [Example 286]
Cc1ncn2c1c(N)nc1ccc(C(=O)N(c3cnn(C)c3)C(C)c3cn4cc(C(F)(F)F)ccc4n3)cc12 (centres unmarked) [Example 292]
Cc1ncc2c(N)nc3cc(F)c(C(=O)N(Cc4cn5cccc(C(F)(F)F)c5n4)c4cnn(C)c4)cc3n12 [Example 195]
CCc1nn(C)cc1N(Cc1cn2cc(C(F)(F)F)ccc2n1)C(=O)c1ccc2nc(N)c3c(c2c1)COC3 [Example 97]
Cc1ncn2c1c(N)nc1ccc(C(=O)N(Cc3cn4cc(C(F)(F)F)ccc4n3)CC(C)C)cc12 [Example 299]
Cc1cn2c(n1)c(N)nc1cc(F)c(C(=O)N(Cc3cn4ccccc4n3)CC(C)C)cc12 [Example 158]
CC(C)CN(Cc1cn2cc(C(F)(F)F)ccc2n1)C(=O)c1ccc2nc(N)c3c(c2c1)COC3C (centres unmarked) [Example 52]
Cc1ncn2c1c(N)nc1ccc(C(=O)N(Cc3cn4cc(C(F)(F)F)ccc4n3)c3cnn(C)c3)cc12 [Example 293]
CCN(Cc1cn2cc(OC)ccc2n1)C(=O)c1cc2c(cc1F)nc(N)c1c(C)ncn12 [Example 263]
Cc1ncc2c(N)nc3cc(F)c(C(=O)N(c4cnn(C)c4)C4COc5ccccc54)cc3n12 (centres unmarked) [Example 225]
Cc1ncn2c1c(N)nc1ccc(C(=O)N(Cc3cn4ccccc4n3)CC(C)C)cc12 [Example 297]

IC50, 100 to 1000 nM:
Cc1cn2c(n1)c(N)nc1cc(F)c(C(=O)N3C(C)COC[C@@H]3c3cn4cc(C(F)(F)F)ccc4n3)cc12 (some centres unmarked) [Example 170]

Same assay, conditions: read-out: Cell proliferation inhibition rate HCT116 MTAP WT IC50 (nm)

IC50, 1000 to 10000 nM:
Cc1ncc2c(N)nc3cc(F)c(C(=O)N(Cc4nc5ccc(C(F)(F)F)cc5[nH]4)c4ccnn4C)cc3n12 [Example 142]

Test system: HCT116-MTAP-KO (MTAP null) cells
Assay: Proliferation inhibition of HCT116 MTAP-KO cells in vitro (CellTiter Glo, 6 days)
Assay type: cell-based
Conditions: HCT116-MTAP null, 144 h, read-out: Cell proliferation inhibition rate HCT116-MTAP null IC50 (nm)

IC50, < 100 nM:
COCC(C)N(Cc1cn2cc(C(F)(F)F)ccc2n1)C(=O)c1ccc2nc(N)c3c(C)ncn3c2c1 (centres unmarked) [Example 288]
CCN(Cc1cc2ccc(C(F)(F)F)cn2n1)C(=O)c1cc2c(cc1F)nc(N)c1c(C)ncn12 [Example 218]
Cc1ncccc1N(Cc1cn2cc(C(F)(F)F)ccc2n1)C(=O)c1ccc2nc(N)c3c(c2c1)COC3 [Example 99]
Cc1nn(C)cc1N(Cc1nc2ccc(C(F)(F)F)cn2c1F)C(=O)c1ccc2nc(N)c3c(c2c1)COC3 [Example 93]
Cc1nn(C)cc1N(Cc1cn2cc(C(F)(F)F)ccc2n1)C(=O)c1ccc2nc(N)c3c(c2c1)OCC3 [Example 109]
Cc1cn2c(n1)c(N)nc1cc(F)c(C(=O)N3C(C)COC[C@@H]3c3cn4cc(C(F)(F)F)ccc4n3)cc12 (some centres unmarked) [Example 170]
COC1CCC1N(Cc1cn2cc(C(F)(F)F)ccc2n1)C(=O)c1ccc2nc(N)c3c(C)ncn3c2c1 (centres unmarked) [Example 286]
CCc1nn(C)cc1N(Cc1cn2cc(C(F)(F)F)ccc2n1)C(=O)c1ccc2nc(N)c3c(c2c1)COC3 [Example 97]
Cc1ncn2c1c(N)nc1ccc(C(=O)N(Cc3cn4cc(C(F)(F)F)ccc4n3)CC(C)C)cc12 [Example 299]
CC(C)CN(Cc1cn2cc(C(F)(F)F)ccc2n1)C(=O)c1ccc2nc(N)c3c(c2c1)COC3C (centres unmarked) [Example 52]
Cc1ncc2c(N)nc3cc(F)c(C(=O)N(c4cnn(C)c4)C4COc5ccccc54)cc3n12 (centres unmarked) [Example 225]
Cc1ncn2c1c(N)nc1ccc(C(=O)N(Cc3cn4ccccc4n3)CC(C)C)cc12 [Example 297]

IC50, 100 to 1000 nM:
CCN(Cc1cn2ccccc2n1)C(=O)c1cc2c(cc1F)nc(N)c1c(C)ncn12 [Example 274]
CCN(Cc1cn2cc(-c3cnn(C)c3)ccc2n1)C(=O)c1cc2c(cc1F)nc(N)c1c(C)ncn12 [Example 258]
Cc1ncc2c(N)nc3cc(F)c(C(=O)N(Cc4cc5c(cn4)COC5)c4cnn(C)c4)cc3n12 [Example 211]
CCN(C(=O)c1cc2c(cc1F)nc(N)c1c(C)ncn12)C1COc2ccccc21 (centres unmarked) [Example 224]
CCN(Cc1cc2ccccn2n1)C(=O)c1ccc2nc(N)c3cnc(C)n3c2c1 [Example 159]
CC(c1ncccn1)N(Cc1cn2c(n1)COCC2)C(=O)c1ccc2nc(N)c3c(c2c1)CCC3 (centres unmarked) [Example 157]
CCN(Cc1cn2nc(C(F)(F)F)ccc2n1)C(=O)c1cc2c(cc1F)nc(N)c1c(C)ncn12 [Example 213]
Cc1ncn2c1c(N)nc1ccc(C(=O)N(c3cnn(C)c3)C(C)c3cn4cc(C(F)(F)F)ccc4n3)cc12 (centres unmarked) [Example 292]
Cc1ncc2c(N)nc3cc(F)c(C(=O)N(Cc4cn5cccc(C(F)(F)F)c5n4)c4cnn(C)c4)cc3n12 [Example 195]
Cc1cn2c(n1)c(N)nc1cc(F)c(C(=O)N(Cc3cn4ccccc4n3)CC(C)C)cc12 [Example 158]
Cc1ncn2c1c(N)nc1ccc(C(=O)N(Cc3cn4cc(C(F)(F)F)ccc4n3)c3cnn(C)c3)cc12 [Example 293]
CCN(Cc1cn2cc(OC)ccc2n1)C(=O)c1cc2c(cc1F)nc(N)c1c(C)ncn12 [Example 263]

Same assay, conditions: read-out: Cell proliferation inhibition rate HCT116-MTAP null IC50 (nm)

IC50, 100 to 1000 nM:
Cc1ncc2c(N)nc3cc(F)c(C(=O)N(Cc4nc5ccc(C(F)(F)F)cc5[nH]4)c4ccnn4C)cc3n12 [Example 142]
